Laboratory results from publication PMC5218480 (PLoS ONE, 2017).

Test system: MV-4-11 cells
Test: Gene expression microarray analysis (Affymetrix PrimeView) and GSEA
Assay type: cell-based, human
Settings: ProbeSet 11754607_s_at; LIST B

Compound: Nc1ccc(-c2cccs2)cc1NC(=O)c1ccc2c(c1)cc(C1CC1)n2CCN1CCOCC1 [ACY-1035]
- RFU, HSP90B1 /// MIR3652: 2548.05 RFU
